The subject of series [1] is BxPC3 (pankreatisches Adenokarzinom). As to the kind of experiment: MTT test, triplicate, two-fold dilutions. Format: cell-based. As to conditions: Homo sapiens. Here is the method: (§1) Die Silan wurden in Ethanol aufgelöst und in Zellkulturmedien in Konzentrationen von bis zu 500 µg/ml resuspendiert. Es wurden MTT Tests in dreifacher Ausführung durchgeführt, für welche doppelte Lösungen (7 Schritte) und colo205 (Kofon-Karzinom), BxPC3 (pankreatisches Adenokarzinom) sowie T47D (Brustkrebs) benutzt wurden.

For series [2], the system named is T47D (Brustkrebs). As to the kind of experiment: MTT test, triplicate, two-fold dilutions. Format: cell-based. As to conditions: Homo sapiens, T47D, read-out: IC50 T47D. On the procedure:
as §1

Series [3] has as its system colo205 (Kofon-Karzinom). As to the kind of experiment: MTT test, triplicate, two-fold dilutions. Format: cell-based. As to conditions: Homo sapiens. On the procedure:
as §1

Series [4] relates to Angiosarkome. Briefly: Effect on angiosarcomas.
Series [5] relates to Maus. Briefly: Pharmacological observation in the mouse (central, vegetative and toxic effects, acute toxicity). As to conditions: for oLD (orienberende letale Dosis): mouse, in vivo. The format is in vivo. An excerpt: Pharmakologische Untersuchungen an der Maus
Die Verbindungen wurden an der Maus auf zentrale, vegetative und toxische Effekte geprüft. Durch systemische Einzelbeobachtungen sind neben der akuten Toxizität (orienberende letale Dosis, oLD) zentrale und vegetative Wirkungen der Testsubstanzen, insbesondere Effekte auf die Motorik und das Reaktionsvermögen, die Haut- und Rektaltemperatur sowie auf die Pupillenmotorik erfasst worden. Die getesteten Dosierungen betrugen 5 •10^-4, 1 • 10^-3 und 5 • 10^-3 mol/kg Körpergewicht Letale Wirkungen konnten bei keiner der Verbindungen beobachtet werden. Die oLD lag für Di(tetradecanoyloxy)dimethylsilan und Di(octadecanoyloxy)dimethylsilan unter 1 • 10^-3 mol/kg Körpergewicht für alle übrigen Verbindungen unter 5 • 10^-3 mollkg Körpergewicht.

In series [6] the test system is Basalzellkarzinome. Briefly: Effect on basal cell carcinomas.
In series [7] the test system is Kälber-Aortenendothelzellinie BKEz-7. Briefly: tissue or blood. Format: cell-based. The conditions noted are these: for IC50: suspensions, 48 Stunden bei 37°C. An excerpt: Prüfung auf zytotoxisches Potential an Kälber-Aortenendothelzellinie BKEz-7
Als Marker für eine zytotoxische Wirkung wird bei Zellen der charakterisierten Kälber-Aortenendothelzellinie BKEz-7 die Hemmkonzentration ermittelt, bei der eine 50%-ige Hemmung der Zellproliferation erfolgt (im Vergleich zu Kontrollkulturen ohne Zusatz eines Zellinhibitors). Die resultierende Reduzierung der Zellzahl um 50% wird als IC 50 ausgedrückt. Die getesteten Silanverbindungen wurden als Suspensionen auf die Kulturen gegeben und 48 Stunden bei 37°C inkubiert. Zusätzlich erfolgten morphologische Kontrollen und Vitalitätsbestimmungen mittels dem Neutralrot-Test. Mit Ausnahme des Di(dodecanoyloxy)dimethylsilans standen alle Ergebnisse der morphologischen Untersuchungen in guter Übereinstimmung. […]

Series [8] deals with Osteosarkome. As to the kind of experiment: Effect on osteosarcomas.
Series [9] deals with Lymphome. Briefly: Effect on lymphomas.
The test system of series [10] is Seminome. As to the kind of experiment: Effect on seminomas.
[11] abbreviates: COLO 205, read-out: IC50 Colo205.

Structures are written as SMILES. ≈ marks a conversion by molar mass, not a printed value. Like-named read-outs stand apart in the source and are kept apart here. Numbered stars: 1 amine (or outer) side, 2 acyl side, 3 side chain; on linkers, the order of the positions; unused ones are H or OH. Bridge positions count the residues as written; N and C are the ends. Peptide text beside a SMILES is read from it. I, II: the chains in the order shown. X2 = c1ccc([Si](O[*:1])(O[*:2])c2ccccc2)cc1 A value given as a limit tells only on which side of the number the result lay.

For the compound `CCCCCCCCCCCCCC(=O)O[Si](CC)(CC)OC(=O)CCCCCCCCCCCCC` [Si 14, Di (tetradecanoyloxy) diethylsilan], the IC50 in series [1] (BXPC-3, read-out: IC50 BxPC3) stood at 70 µg/mL (≈ 129 µM); in series [2] it was 65 µg/mL (≈ 120 µM); in series [3] (setting [11]), 250 µg/mL (≈ 462 µM).
Regarding `CC(C)[C@H](N)C(=O)N[C@H](C(=O)N[C@H](C(=O)N[C@H](C(=O)N[C@H](C(=O)O[Si](OC(=O)[C@@H](NC(=O)[C@@H](NC(=O)[C@@H](NC(=O)[C@@H](NC(=O)[C@@H](N)C(C)C)C(C)C)C(C)C)C(C)C)C(C)C)(c1ccccc1)c1ccccc1)C(C)C)C(C)C)C(C)C)C(C)C` [Diphenyl bis(pentavalyl)silylester], the “Wirkung gegen Angiosarkome” value in series [4] is on record as “zeigen eine Wirkung”.
`CCCCCCCCCC(=O)O[Si](OC(=O)CCCCCCCCC)(c1ccccc1)c1ccccc1` [Di(decanoyloxy)diphenylsilan]: the figures for the “zentrale, vegetative und toxische Effekte (Verhaltensänderungen)” value (“zentrale … (Verhaltensänderungen)” for short) in series [5] (1•10^-3 mol/kg), in series [5] (5•10^-3 mol/kg) and in series [5] (5•10^-4 mol/kg) were “keine Verhaltensänderungen”, “schwache Ataxie” and “keine Verhaltensänderungen”, respectively. Further, in series [6], the “Wirkung auf Basalzellkarzinome” value is “zeigen eine Wirkung”. The “Bedenkliche Toxizität” value in series [7] is “-”. This compound displayed an IC50 in series [7] of 14 µM.
With `CC(C)[C@H](N)C(=O)N[C@H](C(=O)N[C@H](C(=O)N[C@H](C(=O)N[C@H](C(=O)N[C@H](C(=O)N[C@H](C(=O)O[Si](OC(=O)[C@@H](NC(=O)[C@@H](NC(=O)[C@@H](NC(=O)[C@@H](NC(=O)[C@@H](NC(=O)[C@@H](NC(=O)[C@@H](N)C(C)C)C(C)C)C(C)C)C(C)C)C(C)C)C(C)C)C(C)C)(c1ccccc1)c1ccccc1)C(C)C)C(C)C)C(C)C)C(C)C)C(C)C)C(C)C` [Diphenyl bis(heptavalyl)silylester] (I: H-VVVVVVV / II: H-VVVVVVV; linker I:C-II:C via X2), in series [4], the “Wirkung gegen Angiosarkome” value is “zeigen eine Wirkung”.
In the case of `CCCCCCCCC(=O)O[Si](C)(C)OC(=O)CCCCCCCC` [Di(nonanoyloxy)dimethylsilan], the “Wirkung auf Osteosarkome” value in series [8] was “zeigen eine Wirkung”.
On the same count and under the same terms, next, `CCCCCCCC(=O)O[Si](C)(C)OC(=O)CCCCCCC` [Di(octanoyloxy)dimethylsilan]: “zeigen eine Wirkung”.
With `CCCCCCCCCCCCCCCCCC(=O)O[Si](C)(C)OC(=O)CCCCCCCCCCCCCCCCC` [Di(octadecanoyloxy)dimethylsilan], in series [5] (1•10^-3 mol/kg), the “zentrale … (Verhaltensänderungen)” value was “keine Verhaltensänderungen”. Besides, the “zentrale … (Verhaltensänderungen)” value in series [5] (5•10^-4 mol/kg) was “keine Verhaltensänderungen”. Also, in series [5], the “oLD (orienberende letale Dosis)” value is reported as < 1 • 10^-3 mol/kg Körpergewicht. The “Wirkung auf Osteosarkome” value in [8] is “zeigen eine Wirkung”. Also, in [7], the “Bedenkliche Toxizität” value is “-” and the IC50 is 495 µM.
Regarding `CC(C)[C@H](N)C(=O)N[C@H](C(=O)N[C@H](C(=O)N[C@H](C(=O)N[C@H](C(=O)N[C@H](C(=O)O[Si](OC(=O)[C@@H](NC(=O)[C@@H](NC(=O)[C@@H](NC(=O)[C@@H](NC(=O)[C@@H](NC(=O)[C@@H](N)C(C)C)C(C)C)C(C)C)C(C)C)C(C)C)C(C)C)(c1ccccc1)c1ccccc1)C(C)C)C(C)C)C(C)C)C(C)C)C(C)C` [Diphenyl bis(hexavalyl)silylester] (I: H-VVVVVV / II: H-VVVVVV; linker I:C-II:C via X2), the “Wirkung gegen Angiosarkome” value in series [4] was “zeigen eine Wirkung”.
`CC/C=C\C/C=C\C/C=C\CCCCCCCC(=O)O[Si](C)(C)OC(=O)CCCCCCC/C=C\C/C=C\C/C=C\CC` [Di (lino-lenoylooxy)dimethylsilan]: in [9], the “Wirkung auf Lymphome” value is recorded as “zeigen eine Wirkung”.
Regarding `CCCCCCCCCC(=O)O[Si](C)(C)OC(=O)CCCCCCCCC` [Di(decanoyloxy)dimethylsilan], the entries for the “zentrale … (Verhaltensänderungen)” value in [5] (1•10^-3 mol/kg), in [5] (5•10^-3 mol/kg) and in series [5] (5•10^-4 mol/kg) were “Piloerektion”, “schwach bis mäßig ausgeprägte Verhaltensänderung en” and “keine Verhaltensänderungen”, respectively. In addition, the “Wirkung auf Osteosarkome” value in [8] is recorded as “zeigen eine Wirkung”.
In the case of `CCCCCCCCCCCCCCCC(=O)O[Si](OC(=O)CCCCCCCCCCCCCCC)(c1ccccc1)c1ccccc1` [Si 8, Di (hexadecanoyloxy) diphenylsilan], the “zentrale … (Verhaltensänderungen)” value in [5] (1•10^-3 mol/kg) is “keine Verhaltensänderungen”; in series [5] (5•10^-3 mol/kg) it was “schwache Ataxie, Hyperaktivität und Piloerektion, Straubtail”; in [5] (5•10^-4 mol/kg), “keine Verhaltensänderungen”. Also, the IC50 in [1] (BXPC-3, up to 500 µg/ml, read-out: IC50 BxPC3) was 30 µg/mL (≈ 43.3 µM); in series [2] (up to 500 µg/ml), 20 µg/mL (≈ 28.9 µM); in series [3] (COLO 205, up to 500 µg/ml, read-out: IC50 Colo205), 300 µg/mL (≈ 433 µM). In series [6], the “Wirkung auf Basalzellkarzinome” value is listed as “zeigen eine Wirkung”.
Turning to `CCCCC/C=C\C/C=C\CCCCCCCC(=O)O[Si](CC)(CC)OC(=O)CCCCCCC/C=C\C/C=C\CCCCC` [Di(linoylooxy)diethylsilan], in series [9], the “Wirkung auf Lymphome” value is reported as “zeigen eine Wirkung”.
On to `CCCCCCCCC(=O)O[Si](CCC)(CCC)OC(=O)CCCCCCCC` [Di(nonanoyloxy)dipropylsilan], for which the “Wirkung auf Seminome” value in series [10] is reported as “zeigen eine Wirkung”.
On to `CCCCCCCCCCCCCCCCC(=O)O[Si](OC(=O)CCCCCCCCCCCCCCCC)(C(C)C)C(C)C` [Di(heptadecanoyloxy)diisopropylsilan], for which, in series [9], the “Wirkung auf Lymphome” value was “zeigen eine Wirkung”.
On to `CCCCCCCCCC(=O)O[Si](CCC)(CCC)OC(=O)CCCCCCCCC` [Di(decanoyloxy)dipropylsilan], for which the “Wirkung auf Seminome” value in [10] is listed as “zeigen eine Wirkung”.
For the compound `CCCCCCCCCCCCCCCCCC(=O)O[Si](OC(=O)CCCCCCCCCCCCCCCCC)(C(C)C)C(C)C` [Di(octadecanoyloxy)diisopropylsilan], the “Wirkung auf Lymphome” value in series [9] was “zeigen eine Wirkung”.
On to `CCCCCCCCCCCCC(=O)O[Si](CC)(CC)OC(=O)CCCCCCCCCCCC` [Si 6, Di (tridecanoyloxy) diethylsilan], for which the IC50 in series [1] (BXPC-3, read-out: IC50 BxPC3) was found to be 150 µg/mL (≈ 292 µM); in [2], 250 µg/mL (≈ 487 µM); in series [3] (setting [11]), 240 µg/mL (≈ 468 µM).
With `CCCCCCCC(=O)O[Si](OC(=O)CCCCCCC)(c1ccccc1)c1ccccc1` [Di(octanoyloxy)diphenylsilan], the “zentrale … (Verhaltensänderungen)” value in series [5] (1•10^-3 mol/kg) is “Ataxie, Hyper-aktivität”; in series [5] (5•10^-3 mol/kg), “schwache Ataxie, Hyperaktivität”; in series [5] (5•10^-4 mol/kg), “schwache Hyperaktivität”. Further, the “Wirkung auf Basalzellkarzinome” value in series [6] was “zeigen eine Wirkung”. Moreover, the “Bedenkliche Toxizität” value in [7] is listed as “-”. This compound also had an IC50 in series [7] greater than 20 µM.
`CCCCCCCCCCC(=O)O[Si](CCC)(CCC)OC(=O)CCCCCCCCCC` [Di(undecanoyloxy) dipropylsilan]: the “Wirkung auf Seminome” value in [10] is listed as “zeigen eine Wirkung”.
`CCCCCCCCCCCC(=O)O[Si](OC(=O)CCCCCCCCCCC)(c1ccccc1)c1ccccc1` [Di(dodecanoyloxy)diphenylsilan]: the “zentrale … (Verhaltensänderungen)” value is “keine Verhaltensänderungen” in [5] (1•10^-3 mol/kg), “keine Verhaltensänderungen” in [5] (5•10^-3 mol/kg) and “keine Verhältensänderungen” in [5] (5•10^-4 mol/kg). Besides, in [6], the “Wirkung auf Basalzellkarzinome” value was “zeigen eine Wirkung”. The “Bedenkliche Toxizität” value in series [7] is given as “-”. The 50% inhibitory concentration (IC50) in [7] was found to be 36 µM.
For the compound `CCCCCCCCCCCCCC(=O)O[Si](C)(C)OC(=O)CCCCCCCCCCCCC` [Di(tetradecanoyloxy)dimethylsilan], the “zentrale … (Verhaltensänderungen)” value in [5] (1•10^-3 mol/kg) is on record as “Ataxie”; in [5] (5•10^-4 mol/kg), “schwache Ataxie, Piloerektion”. Further, the “oLD (orienberende letale Dosis)” value in series [5] is listed as < 1 • 10^-3 mol/kg Körpergewicht. In addition, in series [8], the “Wirkung auf Osteosarkome” value is recorded as “zeigen eine Wirkung”. Further, the “Bedenkliche Toxizität” value in [7] is listed as “-”. The compound further registered an IC50 in [7] of 110 µM.
Turning to `CCCCC/C=C\C/C=C\CCCCCCCC(=O)O[Si](C)(C)OC(=O)CCCCCCC/C=C\C/C=C\CCCCC` [Di(linoylooxy)dimethylsilan], in [9], the “Wirkung auf Lymphome” value was “zeigen eine Wirkung”.
The same measure, in the same setting: next, `CCCCCCCC/C=C\CCCCCCCC(=O)O[Si](C)(C)OC(=O)CCCCCCC/C=C\CCCCCCCC`: “zeigen eine Wirkung”.

For the origin of these results see EP1948196B1, “USE OF TETRAORGANOSILICON COMPOUNDS” (Salama, Zoser B., priority 2005, dated 2007).
